Results taken from PubChem BioAssay (NCI).
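All cell lines were grown in 96-well plates and treated with compound for 48 hours. At the GI50, growth is halved. Definition used: TGI = concentration required for complete inhibition of growth.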

What was measured:
Assay in all cases: NCI-60 cell line screen, 48 h
MOLT-4 leukemia = system: MOLT-4 leukemia
HOP-92 NSCLC = system: HOP-92 NSCLC
SR leukemia = system: SR leukemia
A549 NSCLC = system: A549 NSCLC
SK-OV-3 ovarian = system: SK-OV-3 ovarian
HT29 colon = system: HT29 colon
MALME-3M melanoma = system: MALME-3M melanoma
CAKI-1 renal = system: CAKI-1 renal
UACC-257 melanoma = system: UACC-257 melanoma
RPMI-8226 leukemia = system: RPMI-8226 leukemia
HS 578T breast = system: HS 578T breast

Compound	TGI (MOLT-4 leukemia)	TGI (HOP-92 NSCLC)	TGI (SR leukemia)	TGI (A549 NSCLC)	TGI (SK-OV-3 ovarian)	TGI (HT29 colon)	TGI (MALME-3M melanoma)	TGI (CAKI-1 renal)	TGI (UACC-257 melanoma)	TGI (RPMI-8226 leukemia)	TGI (HS 578T breast)	GI50 (SK-OV-3 ovarian)	GI50 (MOLT-4 leukemia)	GI50 (SR leukemia)	GI50 (HT29 colon)	GI50 (MALME-3M melanoma)	GI50 (HOP-92 NSCLC)	GI50 (CAKI-1 renal)	GI50 (UACC-257 melanoma)
CCOc1ccc(N=Nc2ccc(-c3ccc(N=Nc4c(O)ccc5cc(S(=O)(=O)O)cc(S(=O)(=O)O)c45)cc3)cc2)cc1	> 100 µM	> 100 µM	> 100 µM	> 100 µM	> 100 µM	> 100 µM	> 100 µM	> 100 µM	> 100 µM	> 100 µM	> 100 µM								
C[N+]1(C)C/C(=C\c2ccc(O)cc2)C(=O)/C(=C/c2ccc(O)cc2)C1	> 100 µM	> 100 µM	> 100 µM	> 100 µM	> 100 µM	> 100 µM	> 100 µM	> 100 µM	> 100 µM	> 100 µM									
CC1(Cc2cc3c(cc2C2(c4ccc([N+](=O)[O-])cc4)OCCO2)OCO3)OCCO1	> 100 µM			> 100 µM	> 100 µM	> 100 µM	> 100 µM	> 100 µM	> 100 µM	78.4 µM	> 100 µM								
O=C(CSc1nc2ccc(I)cc2c(=O)n1Cc1ccccc1)NN1C(=O)CSC1c1ccccc1 (stereo not given)	> 100 µM	46.9 µM	> 100 µM	> 100 µM	67.9 µM	> 100 µM		10.9 µM	57.5 µM	> 100 µM									
CC(=O)c1c(C)cc2cccc(OC3OC(CO)C(O)C(O)C3O)c2c1O (stereo not given) (tested in a mixture with another compound)	> 100 µM	> 100 µM	> 100 µM	> 100 µM	> 100 µM	> 100 µM	> 100 µM	> 100 µM	> 100 µM	> 100 µM	> 100 µM								
O=C(/C=C/c1ccc(O)cc1)c1cc(-c2cc(CCC(=O)c3ccc(O)cc3O)ccc2O)c(O)cc1O	> 50 µM	> 50 µM	29.5 µM	> 50 µM	42.6 µM	35.8 µM	> 50 µM	> 50 µM	> 50 µM	> 50 µM	> 50 µM								
O=C1O/C(=C\C=C\CO)C=C1/C=C/CO	> 100 µM		71.4 µM	> 100 µM	> 100 µM	88.5 µM	32.5 µM	28.3 µM		47.6 µM									
O=S(=O)([O-])[O-].[Fe+2].[OH2+]c1c(Cl)cc(Cl)cc1/C=N/Nc1ccccn1	2.94 µM	0.899 µM	4.03 µM	4.14 µM	3.7 µM	3.6 µM	3.57 µM		2.63 µM	6.12 µM		1.86 µM							
Cc1cc(C)nc(NS(=O)(=O)c2ccc(Nc3nnc(/C=C/c4c(O)ccc5ccccc45)c(=O)n3N)cc2)n1	> 100 µM	> 100 µM	55.6 µM	> 100 µM	> 100 µM	> 100 µM	92.7 µM	59.8 µM		> 100 µM	> 100 µM								
COc1cc(O)c2c(=O)c(OC)c(-c3ccc(OC)c(OC)c3)oc2c1.[Zn+2]	> 100 µM		> 100 µM	> 100 µM	47.2 µM	> 100 µM	> 100 µM	> 100 µM		> 100 µM	9.49 µM		> 100 µM	> 100 µM	41.8 µM	33.3 µM			
Nc1ccc(S(=O)(=O)NCCS(=O)(=O)O)cc1	> 100 µM	> 100 µM	> 100 µM	> 100 µM		> 100 µM	> 100 µM	> 100 µM	> 100 µM		> 100 µM								
CC(=O)[C@]12OC(=O)C3=C1[C@H](CC[C@@H]3C)[C@@H](C)C[C@H]2C=C(C)C	18.6 µM	7.43 µM	16.8 µM	16.8 µM	21.3 µM	13.9 µM		13 µM	21 µM	15.5 µM	18.1 µM								
O=C(c1ccc(Cl)c(Cl)c1)N(C(=O)N1CCN(c2ccccc2)CC1)S(=O)(=O)c1ccccc1	41.8 µM	84.4 µM	> 100 µM	> 100 µM	79.6 µM	> 100 µM	> 100 µM	> 100 µM	> 100 µM	> 100 µM	> 100 µM								
Cc1c(-c2ccccc2)c(C#N)c2nnn(C)c(=O)n12		> 100 µM	> 100 µM	> 100 µM	> 100 µM	> 100 µM	> 100 µM	> 100 µM	> 100 µM	> 100 µM	> 100 µM								
CC(=O)Oc1cc(/C=C/c2ccc(O)cc2)cc(OC(C)=O)c1	63.2 µM	> 100 µM	48.7 µM	> 100 µM	> 100 µM	93.1 µM	> 100 µM	> 100 µM	> 100 µM	25.4 µM	> 100 µM								
CCCCCCCCc1ccc(CCC(N)(CO)CO)cc1	3.44 µM	3.53 µM	4.28 µM		3.09 µM	3.31 µM	5.8 µM	6.56 µM	5.01 µM			1.61 µM	1.64 µM	1.39 µM	1.76 µM	2.32 µM	1.39 µM	2.64 µM	2.23 µM
CC(=O)C(N=NC1CCC(S(=O)(=O)NB2N=CS2)CC1)C(=O)Nc1ccccc1C (stereo not given)	> 100 µM	34.3 µM	> 100 µM	28.6 µM	50.6 µM	29.9 µM	30.5 µM	46.9 µM	45.1 µM	> 100 µM									
Cc1ccccc1C1CC(=O)CC(c2ccccc2C)C12C(=O)NC(=S)NC2=O (stereo not given)	> 100 µM	> 100 µM	> 100 µM	> 100 µM	> 100 µM	54.3 µM	78.4 µM	> 100 µM	52.4 µM	38.6 µM	97.2 µM								
NC(=S)N/N=C1\CC(c2ccccc2)Nc2ccccc21 (stereo not given)	73.2 µM	57.5 µM			> 100 µM	48.5 µM	97 µM	> 100 µM		> 100 µM									
C[N+]1(c2ccccc2)C=C(c2ccccc2)SC1=S (stereo not given)			> 100 µM	> 100 µM		> 100 µM	> 100 µM	> 100 µM	> 100 µM	> 100 µM	> 100 µM								
Cc1ncc(COP(=O)(O)O)c(C)c1O	> 100 µM	> 100 µM	> 100 µM	> 100 µM		> 100 µM	> 100 µM	> 100 µM	> 100 µM		> 100 µM								
CC(C)=CC[C@H]1C[C@@]2(CC=C(C)C)C(=O)/C(=C(/O)c3ccccc3)C(=O)[C@](CC=C(C)C)(C2=O)C1(C)C	> 100 µM	19.1 µM	> 100 µM	23.7 µM	24.3 µM	23.4 µM	27.9 µM	28.9 µM	19.7 µM	> 100 µM	59.6 µM								
